Measurements: patent publication US9701680B2, “Pyrimidine and pyridine compounds and their usage” (HUTCHISON MEDIPHARMA LIMITED, priority 2013, dated 2017)
pIC50: −log10 of the molar value. Like-named read-outs stand apart in the source and are kept apart here.

Key:
[1] = target: Recombinant human FGFR1 (Homo sapiens, UniProt P11362); test: Transcreener Kinase Assay of FGFR1; assay type: biochemical
Protocol: (§1) • 1. […] Prepare Solution • Test compounds were solved in DMSO and were diluted with assay buffer to 5 folds of final concentration keeping the DMSO concentration at 5%. Further dilution are needed to make final concentrations are at 1, 0.33, 0.11, 0.037, 0.012, 0.004, 0.0014, 0.0005 μM; (the final concentration of DMSO is 1%). • Enzyme/Substrate stock Preparation: Recombinant human FGFR1 and Poly E4Y are both diluted in assay buffer.
• 3. Enzymatic Reaction • In a 96-well plate, add 5 μL of diluted solution of test compound or control solution. (positive control: 5 μL of 5% DMSO; negative control: 5 μL of 500 mM EDTA) into desired wells respectively; • Add 10 μL of Enzyme/Substrate stock into each well; • Add 10 μL of ATP Diluents to initiate the enzyme reaction and vortex the plate immediately on a plate shaker; • For the wells to make standard curve, add 5 μL of 5% DMSO, 10 μL of assay buffer and 10 μL of ATP standard curve stock. • Incubate the plate for 45 min at 28° C. on a plate shaker in a low speed. • 4. […] Excitation wavelength: 610 nm, Emission wavelength: 670 nm. • 5. Data Analysis
(§2) [formula] Note: • [ADP] in Compound well represents the ADP concentration in test compound well. • [ADP] in Positive control well represents the ADP concentration in 5% DMSO well • Conversion of mP value to ADP concentration is calculated based on the formula which determined by standard curve. And mP value is measured by following the instruction provided by BellBrook Labs. (www.bellbrooklabs.com). • 6. IC50: determined with add-in software for Microsoft Excel, XLfit™ (version 2.0) from ID Business Solutions (Guildford, UK).

[2] = target: Recombinant human FGFR2 (Homo sapiens, UniProt P21802); test: Transcreener Kinase Assay of FGFR2; assay type: biochemical
Protocol: Example 24: Transcreener Kinase Assay of FGFR2
as §1, with “FGFR2” for “FGFR1”, “buffer. The final concentration is 0.3 ng/μL for FGFR2 and 62.5 ng/μL for Poly E4Y. The mixture is being kept in ice before use; • Prepare ATP Diluents, 10 mM ATP is diluted in assay buffer, the final concentration is 25 μM; • Prepare ADP Diluents: diluted ADP (500 μM) in assay buffer, the final concentration is 25 μM; • Prepare ATP standard curve stock as following:” for “buffer.”
• 3. Enzymatic Reaction • In a 96-well plate, add 5 μL of deluted solution of test compound or control solution. (positive control: 5 μL of 5% DMSO; negative control: 5 μL of 500 mM EDTA) into desired wells respectively; • Add 10 μL of Enzyme/Substrate stock into each well; • Add 10 μL of ATP Diluents to initiate the enzyme reaction and vortex the plate immediately on a plate shaker; • For the wells to make standard curve, add 5 μL of 5% DMSO, 10 μL of assay buffer and 10 μL of ATP standard curve stock. • Incubate the plate for 45 min at 28° C. on a plate shaker in a low speed. • 4. Stoping Reaction and Detecting ADP • Detection Mix Preparation: The mixture is made by dilution with MilliQ water; as following: ADP Alexa633 tracer (1:100), ADP antibody (1:158), and stop & detect buffer (1:10); • Tracer Only control Preparation: The mixture is made by dilution with MilliQ water; as following: ADP Alexa633 tracer (1:100), and stop & detect buffer (1: 10) • No Tracer control Preparation: stop & detect buffer is diluted with MilliQ water; by 10 fold. • Add 25 μL of detection mix, Tracer Only control and No Tracer control into corresponding wells, respectively; • Incubate at 28° C. for 1 h, on a plate shaker in a low speed; • Measure florescence polarization (mP) on TECAN F500. Excitation wavelength: 610 nm, Emission wavelength: 670 nm. • 5. Data Analysis
as §2

[3] = target: FGFR3 kinase (Homo sapiens, UniProt P22607); test: Z-Lyte Kinase Assay of FGFR3; assay type: biochemical
Protocol: Example 25: Z-Lyte Kinase Assay of FGFR3
• 1. Materials and Reagents:
• 2. Reaction Steps: Plate Map
• 3. […] The final concentrations are 1, 0.33, 0.11, 0.037, 0.012, 0.004, 0.0014, 0.00046 μM, and the final concentration of DMSO is 2%. • 3) Kinase/Peptide Mixture (P/K solution): Prepare Kinase/Peptide Mixture by diluting the kinase to 0.7 μg/ml and the Z-LYTE™ Tyr 4 peptide to 4 μM in 1.33× Kinase Buffer. Mix gently by pipetting. • 4) Phospho-peptide Solution (PP solution): Add 0.4 μl of Z-LYTE™ Tyr 4 Phospho-peptide to 99.6 μl of 1.33× Kinase Buffer. • 5) ATP Solution: Prepare ATP Solution by diluting the 10 mM of ATP in 1.33× Kinase Buffer to 300 uM. • 6) Development Solution: Dilute Development Reagent B with Development Buffer as 1:128. • 4. […] Shake the plate for 30 Sec and centrifuge (1500 rpm, 1 min). • Seal the plate to protect from the light and incubate the plate for 1 hour at RT (25-30° C.). • 2) Development reaction • Add 5 μl of the Development solution to all wells. • Shake the plate for 30 Sec and centrifuge (1500 rpm, 1 min). • Seal the plate to protect from the light and incubate the plate for 1 hour at RT (25-30° C.). • 3) Stop and Read • Add 5 μl of the Stop reagent to all wells. • Shake the plate for 30 Sec and centrifuge (1500 rpm, 1 min). • Measure the value of Coumarin (Ex400 nm, Em445 nm) and fluorescein (Ex400 nm, Em520 nm), respectively. • 5. Data Analysis Emission Ratio(ER)=Coumarin Emission (445 nm)/Fluorescein Emission (520 nm) % Phosphorylation=1−[ER×C3520nm-C3445nm]/[(C1445nm-C3445nm)+ER×(C3520nm−C1520nm)] Inhibition rate (IR)=1−% Photest Cpd/% PhoC2 • 6. IC50 Value: determined with add-in software for Microsoft Excel, XLfit™ (version 2.0) from ID Business Solutions (Guildford, UK)

[4] = tested on: KG-1; test: Cellular Proliferation Assay (Cell Counting Kit-8), KG-1; assay type: cell-based; settings: Homo sapiens; KG-1 cells, 72 hours; read-out: KG1 IC50
Protocol: (§3) Example 26: Cellular Proliferation Assay
(§4) • 1. Cell Line • KG-1 (ATCC Accession No. CCL-246), • SNU-16 (ATCC Accession No. CRL-5974), • RT-112 (ECACC Accession No. 85061106) • 2. Assay Protocol • FGFR related cancer cell proliferation is measured in 96-well plates using Cell Counting Kit-8 (Dojindo CK04-13). • Seed 30000 cells/well of KG1, 5000 cells/well of SNU16, and 1000 cells/well of RT112 in a volume of 100 μL/well in growth media. • After 24 hours, dilute the test compound to 10, 3.3, 1.1, 0.37, 0.12, 0.04, 0.013, 0.004 μM, keeping the DMSO concentration at 5%. • Add 10 μL of 8-point compound series to the wells of culturing cells. • Incubate at 37° C. and 5% CO2 for 72 hours • Add 10 μL/well of CCkit8 and incubate at 37° C. and 5% CO2 for an hour • Detect the optical density of each well at 450 nm on Labsystems Multiskan K3. • 3. Data Analysis
(§5) [formula] Note: • ODcompound well represents the optical density of cells treated with compound. • ODcell well represents the optical density of cells without compounds treatment.(only 0.5% DMSO) • ODcontrol well represents the optical density of culture media background • IC50: determined with add-in software for Microsoft Excel, XLfit™ (version 2.0) from ID Business Solutions (Guildford, UK).

[5] = tested on: SNU-16; test: Cellular Proliferation Assay (Cell Counting Kit-8), SNU-16; assay type: cell-based; settings: Homo sapiens; SNU-16 cells, 72 hours
Protocol: as §3, §4, §5

[6] = tested on: RT-112; test: Cellular Proliferation Assay (Cell Counting Kit-8), RT-112; assay type: cell-based; settings: Homo sapiens; RT-112 cells, 72 hours
Protocol: as §3, §4, §5

Recombinant human FGFR1, sequence (P11362 22-822): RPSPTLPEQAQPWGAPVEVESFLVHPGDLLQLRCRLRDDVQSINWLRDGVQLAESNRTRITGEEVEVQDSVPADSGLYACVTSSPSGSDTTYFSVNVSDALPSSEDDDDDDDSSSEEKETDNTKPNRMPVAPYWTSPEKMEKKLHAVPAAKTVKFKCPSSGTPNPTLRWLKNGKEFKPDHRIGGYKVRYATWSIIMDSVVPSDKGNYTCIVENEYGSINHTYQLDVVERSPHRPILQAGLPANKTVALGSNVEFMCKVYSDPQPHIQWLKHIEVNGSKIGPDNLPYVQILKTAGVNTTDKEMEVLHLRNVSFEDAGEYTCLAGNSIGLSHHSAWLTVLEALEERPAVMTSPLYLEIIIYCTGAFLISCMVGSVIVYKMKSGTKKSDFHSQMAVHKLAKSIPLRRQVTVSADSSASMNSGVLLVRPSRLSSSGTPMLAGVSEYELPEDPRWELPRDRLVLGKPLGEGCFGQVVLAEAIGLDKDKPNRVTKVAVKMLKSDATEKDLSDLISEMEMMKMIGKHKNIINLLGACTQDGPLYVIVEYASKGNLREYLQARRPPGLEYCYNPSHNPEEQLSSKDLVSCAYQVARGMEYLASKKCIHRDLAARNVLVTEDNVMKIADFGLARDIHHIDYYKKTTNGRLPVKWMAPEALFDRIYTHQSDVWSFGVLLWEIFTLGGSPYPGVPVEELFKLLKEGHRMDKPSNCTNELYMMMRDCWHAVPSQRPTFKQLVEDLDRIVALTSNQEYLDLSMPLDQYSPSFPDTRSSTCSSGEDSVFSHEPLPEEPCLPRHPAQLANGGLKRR
FGFR3 kinase, sequence (P22607 23-806): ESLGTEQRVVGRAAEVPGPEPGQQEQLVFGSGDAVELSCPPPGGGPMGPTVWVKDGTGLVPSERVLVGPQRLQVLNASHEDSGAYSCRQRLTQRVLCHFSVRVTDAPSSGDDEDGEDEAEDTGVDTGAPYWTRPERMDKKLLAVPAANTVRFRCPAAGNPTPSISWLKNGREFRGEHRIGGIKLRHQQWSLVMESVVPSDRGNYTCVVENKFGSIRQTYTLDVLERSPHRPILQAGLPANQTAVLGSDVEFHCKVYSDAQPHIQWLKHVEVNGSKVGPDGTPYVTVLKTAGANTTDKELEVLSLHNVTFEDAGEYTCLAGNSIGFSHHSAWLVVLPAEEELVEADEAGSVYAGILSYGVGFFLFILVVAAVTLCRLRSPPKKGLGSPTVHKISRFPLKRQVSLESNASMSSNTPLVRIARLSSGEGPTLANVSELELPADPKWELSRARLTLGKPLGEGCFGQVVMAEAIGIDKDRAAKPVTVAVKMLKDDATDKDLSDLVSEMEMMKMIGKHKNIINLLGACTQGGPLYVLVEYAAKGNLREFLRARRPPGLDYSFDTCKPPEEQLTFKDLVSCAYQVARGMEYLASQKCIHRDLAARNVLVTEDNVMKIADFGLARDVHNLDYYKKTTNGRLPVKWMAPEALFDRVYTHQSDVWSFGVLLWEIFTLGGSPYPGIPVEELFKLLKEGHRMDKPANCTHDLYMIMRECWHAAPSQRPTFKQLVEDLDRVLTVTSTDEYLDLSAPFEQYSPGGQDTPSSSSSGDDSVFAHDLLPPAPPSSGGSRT
Recombinant human FGFR2, sequence (P21802 22-821): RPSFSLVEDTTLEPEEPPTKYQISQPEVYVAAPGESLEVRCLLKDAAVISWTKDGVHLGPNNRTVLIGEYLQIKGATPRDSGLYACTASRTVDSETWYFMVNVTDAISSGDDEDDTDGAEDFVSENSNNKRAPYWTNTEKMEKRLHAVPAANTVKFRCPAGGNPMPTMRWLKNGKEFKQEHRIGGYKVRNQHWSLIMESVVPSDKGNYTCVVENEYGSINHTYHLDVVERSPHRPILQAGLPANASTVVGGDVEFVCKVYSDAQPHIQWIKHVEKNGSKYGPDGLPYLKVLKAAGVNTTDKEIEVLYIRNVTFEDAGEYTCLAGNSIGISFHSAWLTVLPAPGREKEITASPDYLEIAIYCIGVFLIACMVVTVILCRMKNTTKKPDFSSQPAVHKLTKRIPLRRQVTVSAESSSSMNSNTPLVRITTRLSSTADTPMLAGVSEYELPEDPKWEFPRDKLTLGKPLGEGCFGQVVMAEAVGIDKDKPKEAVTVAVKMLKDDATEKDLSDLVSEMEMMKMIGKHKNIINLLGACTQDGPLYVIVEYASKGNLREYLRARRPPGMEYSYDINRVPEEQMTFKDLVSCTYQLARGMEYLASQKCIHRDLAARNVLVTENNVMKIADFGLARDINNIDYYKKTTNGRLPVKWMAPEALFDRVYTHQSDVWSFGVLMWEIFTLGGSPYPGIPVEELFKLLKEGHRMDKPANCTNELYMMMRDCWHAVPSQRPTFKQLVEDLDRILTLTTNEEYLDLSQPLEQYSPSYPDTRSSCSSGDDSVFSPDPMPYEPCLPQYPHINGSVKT

Compound	pIC50 ([1]; read-out: FGFR1 (FP) IC50)	pIC50 ([2]; read-out: FGFR2 (FP) IC50)	pIC50 [3]	pIC50 [4]	pIC50 [5]	pIC50 [6]	pIC50 ([1]; FP)	pIC50 ([2]; FP)	pIC50 ([3]; Z-lyte)
CCN1CCC(c2ccc(Nc3ncc(OCc4cc(C(=O)NC)cc(OC)c4F)cn3)cn2)CC1 [Compound 256]	7.00	7.40	7.41	6.69	7.66	7.24			
CCN1[C@H](C)CN(c2ccc(Nc3ncc(CCc4cc(C(=O)NC)cc(OC)c4Cl)cn3)cn2)C[C@@H]1C [Compound 159]	7.64	7.96	8.00	7.59	8.22	7.68			
CNC(=O)c1cc(COc2cnc(Nc3cccc(-n4nccn4)c3)nc2)c(Cl)c(OC)c1 [Compound 232]	7.77	8.05	6.64	7.15	7.22	6.97			
CNC(=O)c1cc(OC)c(Cl)c(COc2cnc(Nc3ccc(N4C[C@@H](C)N[C@@H](C)C4)cc3)nc2)c1F [Compound 290]				8.22	7.96	7.92	8.00	8.15	7.96
CNC(=O)c1cc(COc2cnc(Nc3ccc([C@H]4CCCN(C(C)=O)C4)nc3)nc2)c(Cl)c(OC)c1 [Compound 284]				7.15	7.48	7.14	7.41	7.62	7.37
CNC(=O)c1cc(COc2cnc(Nc3ccc(-n4nccn4)cc3)nc2)c(Cl)c(OC)c1 [Compound 233]	7.01	7.51	6.51	7.24	7.20	6.92			
CNC(=O)c1cc(COc2cnc(Nc3ccc(N4CCC(N(C)C)CC4)cc3)nc2)c(F)c(OC)c1 [Compound 264]	8.00	8.30	8.22	8.15	8.10	8.10			
CNC(=O)c1cc(COc2cnc(Nc3cnc(N4C[C@@H](C)N[C@@H](C)C4)c(F)c3)nc2)c(F)c(OC)c1 [Compound 277]	7.70	7.85	7.74	7.24	7.44	6.96			
CNC(=O)c1cc(COc2cnc(Nc3ccc(C4CCNCC4)cc3)nc2)c(F)c(OC)c1 [Compound 231]	7.80	7.80	7.96	7.24	8.10	8.05			
CNC(=O)c1cc(COc2cnc(Nc3ccc(-n4cnnc4)cc3)nc2)c(F)c(OC)c1 [Compound 223]	7.54	7.74	7.70	6.99	7.29	6.14			
CNC(=O)c1cc(OC)c(Cl)c(COc2cnc(Nc3ccc(N4C[C@@H](C)N[C@@H](C)C4)nc3)nc2)c1F [Compound 291]				7.82	7.77	7.57	7.77	7.74	7.77
CNC(=O)c1cc(COc2cnc(Nc3cccc(-n4ccnn4)c3)nc2)c(Cl)c(OC)c1 [Compound 234]	8.22	8.40	7.52	7.85	7.82	7.46			
CNC(=O)c1cc(COc2cnc(Nc3ccc(N4CCN(C)CC4)c(OC)c3)nc2)c(Cl)c(OC)c1 [Compound 288]				8.70	8.70	8.52	8.22	8.40	8.40
CNC(=O)c1cc(COc2cnc(Nc3ccc(OC)c(OC)c3)nc2)c(F)c(OC)c1 [Compound 218]	7.60	7.92	7.68	7.57	8.15	7.36			
CNC(=O)c1cc(C#Cc2cnc(Nc3ccc(N4C[C@@H](C)N[C@@H](C)C4)c(OC)c3)nc2)c(F)c(OC)c1 [Compound 306]				7.00	7.64	7.80	7.54	7.92	7.59
CNC(=O)c1cc(COc2cnc(Nc3ccc(N4CCOCC4)c(OC)c3)nc2)c(F)c(OC)c1 [Compound 261]	7.59	7.89	7.74	7.72	8.15	7.89			
